Values after ≈ are worked out from the molar mass of the structure shown. Each block holds one compound with its values, some of them ahead of it.
Legend:
Enterobacter cloacae = test: In vitro antibacterial activity against Enterobacter cloacae OMNFI 174; type: functional
DNA gyrase = DNA gyrase (Escherichia coli, UniProt P0AES4+P0AES6); test: Inhibitory effect against Escherichia coli Gyrase in Supercoiling assay; type: protein-complex assay
Escherichia coli [1] = test: In vitro antibacterial activity against Escherichia coli ATCC 25922; type: functional
Pseudomonas aeruginosa [2] = test: In vitro antibacterial activity against Pseudomonas aeruginosa […] 9027; type: functional
Klebsiella pneumoniae = test: In vitro antibacterial activity against Klebsiella pneumoniae ATCC 10031; type: functional
Enterococcus faecalis [3] = test: In vitro antibacterial activity against Enterococcus faecalis UCMC 39690; type: functional
Streptococcus pyogenes = test: In vitro antibacterial activity against Streptococcus pyogenes OMNFI BI; type: functional
Proteus mirabilis = test: In vitro antibacterial activity against Proteus mirabilis OBT 505; type: functional
[4] = Mean MIC against gram positive; type: functional
Escherichia coli [5] = test: In vitro antibacterial activity against Escherichia coliCPX-R OBT 431; type: functional
Proteus vulgaris = test: In vitro antibacterial activity against Proteus vulgaris CNUR 6; type: functional
Staphylococcus aureus [6] = test: In vitro antibacterial activity against Staphylococcus aureus CPX-R OBT 687; type: functional
Streptococcus pneumoniae = test: In vitro antibacterial activity against Streptococcus pneumoniae I 0.43; type: functional
Staphylococcus aureus [7] = test: In vitro antibacterial activity against Staphylococcus aureus ATCC 29213; type: functional
Staphylococcus aureus [8] = test: In vitro antibacterial activity against Staphylococcus aureus MPR 5; type: functional
Enterococcus faecalis [9] = test: In vitro antibacterial activity against Enterococcus faecalis LEP Br; type: functional
Staphylococcus aureus [10] = test: In vitro antibacterial activity against Staphylococcus aureus M-R POMM 6214; type: functional
[11] = Mean MIC against gram negative; type: functional
Escherichia coli [12] = test: In vitro antibacterial activity against Escherichia coli 120; type: functional
Pseudomonas aeruginosa [13] = test: In vitro antibacterial activity against Pseudomonas aeruginosa OBT 307; type: functional
Haemophilus influenzae = test: In vitro antibacterial activity against Haemophilus influenzae; type: functional

Structure (SMILES): Cc1c(N2CCc3ccccc3C2)c(N)cc2c(=O)c(C(=O)O)cn(C3CC3)c12
MIC (Enterobacter cloacae): 0.5 µg/mL (≈ 1.28 µM)
IC50 (DNA gyrase): 9.24 µM
MIC (Escherichia coli [1]): 0.125 µg/mL (≈ 0.321 µM)
MIC (Pseudomonas aeruginosa [2]): 8 µg/mL (≈ 20.5 µM)
MIC (Klebsiella pneumoniae): 0.03 µg/mL (≈ 0.077 µM)
MIC (Enterococcus faecalis [3]): 0.125 µg/mL (≈ 0.321 µM)
MIC (Streptococcus pyogenes): < 0.016 µg/mL
MIC (Proteus mirabilis): > 16 µg/mL
MIC [4]: 0.075 µg/mL (≈ 0.193 µM)
MIC (Escherichia coli [5]): > 16 µg/mL
MIC (Proteus vulgaris): 8 µg/mL (≈ 20.5 µM)
MIC (Staphylococcus aureus [6]): 2 µg/mL (≈ 5.14 µM)
MIC (Streptococcus pneumoniae): 0.25 µg/mL (≈ 0.642 µM)
MIC (Staphylococcus aureus [7]): < 0.016 µg/mL
MIC (Staphylococcus aureus [8]): < 0.016 µg/mL
MIC (Enterococcus faecalis [9]): 0.25 µg/mL (≈ 0.642 µM)
MIC (Staphylococcus aureus [10]): < 0.016 µg/mL
MIC [11]: 0.998 µg/mL (≈ 2.56 µM)
MIC (Escherichia coli [12]): 0.125 µg/mL (≈ 0.321 µM)
MIC (Pseudomonas aeruginosa [13]): > 16 µg/mL
MIC (Haemophilus influenzae): < 0.016 µg/mL

Structure (SMILES): Cc1c(N2CCCCC2)c(F)cc2c(=O)c(C(=O)O)cn(C3CC3)c12
MIC (Enterobacter cloacae): 0.5 µg/mL (≈ 1.45 µM)
IC50 (DNA gyrase): 6.97 µM
MIC (Escherichia coli [1]): < 0.016 µg/mL
MIC (Pseudomonas aeruginosa [2]): 1 µg/mL (≈ 2.9 µM)
MIC (Klebsiella pneumoniae): < 0.016 µg/mL
MIC (Enterococcus faecalis [3]): < 0.016 µg/mL
MIC (Streptococcus pyogenes): < 0.016 µg/mL
MIC (Proteus mirabilis): 1 µg/mL (≈ 2.9 µM)
MIC [4]: 0.022 µg/mL (≈ 0.0639 µM)
MIC (Escherichia coli [5]): 16 µg/mL (≈ 46.5 µM)
MIC (Proteus vulgaris): 2 µg/mL (≈ 5.81 µM)
MIC (Staphylococcus aureus [6]): 0.125 µg/mL (≈ 0.363 µM)
MIC (Streptococcus pneumoniae): < 0.016 µg/mL
MIC (Staphylococcus aureus [7]): < 0.016 µg/mL
MIC (Staphylococcus aureus [8]): < 0.016 µg/mL
MIC (Enterococcus faecalis [9]): 0.03 µg/mL (≈ 0.0871 µM)
MIC (Staphylococcus aureus [10]): < 0.016 µg/mL
MIC [11]: 0.29 µg/mL (≈ 0.842 µM)
MIC (Escherichia coli [12]): < 0.016 µg/mL
MIC (Pseudomonas aeruginosa [13]): 4 µg/mL (≈ 11.6 µM)
MIC (Haemophilus influenzae): < 0.016 µg/mL

Structure (SMILES): Cc1c(N2CC(C)OC(C)C2)ccc2c(=O)c(C(=O)O)cn(C3CC3)c12 (stereo unspecified)
MIC (Enterobacter cloacae): 2 µg/mL (≈ 5.61 µM)
MIC (Escherichia coli [1]): 1 µg/mL (≈ 2.81 µM)
MIC (Pseudomonas aeruginosa [2]): 16 µg/mL (≈ 44.9 µM)
MIC (Klebsiella pneumoniae): 0.125 µg/mL (≈ 0.351 µM)
MIC (Enterococcus faecalis [3]): 0.25 µg/mL (≈ 0.701 µM)
MIC (Streptococcus pyogenes): 0.5 µg/mL (≈ 1.4 µM)
MIC (Proteus mirabilis): 16 µg/mL (≈ 44.9 µM)
MIC (Escherichia coli [5]): > 16 µg/mL
MIC (Proteus vulgaris): > 16 µg/mL
MIC (Staphylococcus aureus [6]): 1 µg/mL (≈ 2.81 µM)
MIC (Streptococcus pneumoniae): 0.5 µg/mL (≈ 1.4 µM)
MIC (Staphylococcus aureus [7]): 0.125 µg/mL (≈ 0.351 µM)
MIC (Staphylococcus aureus [8]): < 0.016 µg/mL
MIC (Enterococcus faecalis [9]): 1 µg/mL (≈ 2.81 µM)
MIC (Staphylococcus aureus [10]): 0.03 µg/mL (≈ 0.0842 µM)
MIC (Escherichia coli [12]): 0.5 µg/mL (≈ 1.4 µM)
MIC (Pseudomonas aeruginosa [13]): 16 µg/mL (≈ 44.9 µM)
MIC (Haemophilus influenzae): 1 µg/mL (≈ 2.81 µM)

Structure (SMILES): Cc1c(N2CCCCC2)ccc2c(=O)c(C(=O)O)cn(C3CC3)c12
MIC (Enterobacter cloacae): 0.25 µg/mL (≈ 0.766 µM)
IC50 (DNA gyrase): 10.1 µM
MIC (Escherichia coli [1]): 0.03 µg/mL (≈ 0.0919 µM)
MIC (Pseudomonas aeruginosa [2]): 4 µg/mL (≈ 12.3 µM)
MIC (Klebsiella pneumoniae): < 0.016 µg/mL
MIC (Enterococcus faecalis [3]): 0.03 µg/mL (≈ 0.0919 µM)
MIC (Streptococcus pyogenes): 0.03 µg/mL (≈ 0.0919 µM)
MIC (Proteus mirabilis): 4 µg/mL (≈ 12.3 µM)
MIC [4]: 0.052 µg/mL (≈ 0.159 µM)
MIC (Escherichia coli [5]): > 16 µg/mL
MIC (Proteus vulgaris): 8 µg/mL (≈ 24.5 µM)
MIC (Staphylococcus aureus [6]): 1 µg/mL (≈ 3.06 µM)
MIC (Streptococcus pneumoniae): < 0.016 µg/mL
MIC (Staphylococcus aureus [7]): < 0.016 µg/mL
MIC (Staphylococcus aureus [8]): < 0.016 µg/mL
MIC (Enterococcus faecalis [9]): 1 µg/mL (≈ 3.06 µM)
MIC (Staphylococcus aureus [10]): < 0.016 µg/mL
MIC [11]: 0.534 µg/mL (≈ 1.64 µM)
MIC (Escherichia coli [12]): 0.03 µg/mL (≈ 0.0919 µM)
MIC (Pseudomonas aeruginosa [13]): 16 µg/mL (≈ 49 µM)
MIC (Haemophilus influenzae): < 0.016 µg/mL

Structure (SMILES): Cc1c(N2CCc3ccccc3C2)ccc2c(=O)c(C(=O)O)cn(C3CC3)c12
MIC (Enterobacter cloacae): 0.03 µg/mL (≈ 0.0801 µM)
IC50 (DNA gyrase): 20.8 µM
MIC (Escherichia coli [1]): 1 µg/mL (≈ 2.67 µM)
MIC (Pseudomonas aeruginosa [2]): > 16 µg/mL
MIC (Klebsiella pneumoniae): 0.125 µg/mL (≈ 0.334 µM)
MIC (Enterococcus faecalis [3]): 0.5 µg/mL (≈ 1.34 µM)
MIC (Streptococcus pyogenes): 0.25 µg/mL (≈ 0.668 µM)
MIC (Proteus mirabilis): > 16 µg/mL
MIC [4]: 0.272 µg/mL (≈ 0.726 µM)
MIC (Escherichia coli [5]): > 16 µg/mL
MIC (Proteus vulgaris): > 16 µg/mL
MIC (Staphylococcus aureus [6]): 2 µg/mL (≈ 5.34 µM)
MIC (Streptococcus pneumoniae): 1 µg/mL (≈ 2.67 µM)
MIC (Staphylococcus aureus [7]): < 0.016 µg/mL
MIC (Staphylococcus aureus [8]): 0.03 µg/mL (≈ 0.0801 µM)
MIC (Enterococcus faecalis [9]): 1 µg/mL (≈ 2.67 µM)
MIC (Staphylococcus aureus [10]): 0.25 µg/mL (≈ 0.668 µM)
MIC [11]: 1.85 µg/mL (≈ 4.94 µM)
MIC (Escherichia coli [12]): 2 µg/mL (≈ 5.34 µM)
MIC (Pseudomonas aeruginosa [13]): > 16 µg/mL
MIC (Haemophilus influenzae): 0.06 µg/mL (≈ 0.16 µM)

The remaining compounds from weak to strong by MIC (Enterobacter cloacae), led by results:

MIC (Enterobacter cloacae): 1 µg/mL (≈ 2.9 µM)
MIC (Escherichia coli [1]): 0.125 µg/mL (≈ 0.363 µM)
MIC (Pseudomonas aeruginosa [2]): 4 µg/mL (≈ 11.6 µM)
MIC (Klebsiella pneumoniae): < 0.016 µg/mL
MIC (Enterococcus faecalis [3]): 0.5 µg/mL (≈ 1.45 µM)
MIC (Streptococcus pyogenes): 0.5 µg/mL (≈ 1.45 µM)
MIC (Proteus mirabilis): 4 µg/mL (≈ 11.6 µM)
MIC (Escherichia coli [5]): > 16 µg/mL
MIC (Proteus vulgaris): 16 µg/mL (≈ 46.5 µM)
MIC (Staphylococcus aureus [6]): 2 µg/mL (≈ 5.81 µM)
MIC (Streptococcus pneumoniae): 1 µg/mL (≈ 2.9 µM)
MIC (Staphylococcus aureus [7]): > 0.016 µg/mL
MIC (Staphylococcus aureus [8]): > 0.016 µg/mL
MIC (Enterococcus faecalis [9]): 1 µg/mL (≈ 2.9 µM)
MIC (Staphylococcus aureus [10]): > 0.016 µg/mL
MIC (Escherichia coli [12]): 0.25 µg/mL (≈ 0.726 µM)
MIC (Pseudomonas aeruginosa [13]): 16 µg/mL (≈ 46.5 µM)
MIC (Haemophilus influenzae): < 0.016 µg/mL
Structure (SMILES): Cc1c(N2CCSCC2)ccc2c(=O)c(C(=O)O)cn(C3CC3)c12

MIC (Enterobacter cloacae): 0.25 µg/mL (≈ 0.73 µM)
MIC (Escherichia coli [1]): 0.06 µg/mL (≈ 0.175 µM)
MIC (Pseudomonas aeruginosa [2]): 2 µg/mL (≈ 5.84 µM)
MIC (Klebsiella pneumoniae): < 0.016 µg/mL
MIC (Enterococcus faecalis [3]): 0.125 µg/mL (≈ 0.365 µM)
MIC (Streptococcus pyogenes): 2 µg/mL (≈ 5.84 µM)
MIC (Proteus mirabilis): 2 µg/mL (≈ 5.84 µM)
MIC (Escherichia coli [5]): > 16 µg/mL
MIC (Proteus vulgaris): 8 µg/mL (≈ 23.4 µM)
MIC (Staphylococcus aureus [6]): 0.5 µg/mL (≈ 1.46 µM)
MIC (Streptococcus pneumoniae): 0.25 µg/mL (≈ 0.73 µM)
MIC (Staphylococcus aureus [7]): < 0.016 µg/mL
MIC (Staphylococcus aureus [8]): < 0.016 µg/mL
MIC (Enterococcus faecalis [9]): 0.5 µg/mL (≈ 1.46 µM)
MIC (Staphylococcus aureus [10]): < 0.016 µg/mL
MIC (Escherichia coli [12]): 0.06 µg/mL (≈ 0.175 µM)
MIC (Pseudomonas aeruginosa [13]): 16 µg/mL (≈ 46.7 µM)
MIC (Haemophilus influenzae): 0.25 µg/mL (≈ 0.73 µM)
Structure (SMILES): Cc1c(N2CCC(O)CC2)ccc2c(=O)c(C(=O)O)cn(C3CC3)c12

MIC (Enterobacter cloacae): 0.25 µg/mL (≈ 0.734 µM)
MIC (Escherichia coli [1]): 0.03 µg/mL (≈ 0.0881 µM)
MIC (Pseudomonas aeruginosa [2]): 2 µg/mL (≈ 5.88 µM)
MIC (Klebsiella pneumoniae): < 0.016 µg/mL
MIC (Enterococcus faecalis [3]): 0.03 µg/mL (≈ 0.0881 µM)
MIC (Streptococcus pyogenes): 0.125 µg/mL (≈ 0.367 µM)
MIC (Proteus mirabilis): 2 µg/mL (≈ 5.88 µM)
MIC (Escherichia coli [5]): > 16 µg/mL
MIC (Proteus vulgaris): 4 µg/mL (≈ 11.8 µM)
MIC (Staphylococcus aureus [6]): 1 µg/mL (≈ 2.94 µM)
MIC (Streptococcus pneumoniae): 0.25 µg/mL (≈ 0.734 µM)
MIC (Staphylococcus aureus [7]): < 0.016 µg/mL
MIC (Staphylococcus aureus [8]): < 0.016 µg/mL
MIC (Enterococcus faecalis [9]): 0.5 µg/mL (≈ 1.47 µM)
MIC (Staphylococcus aureus [10]): < 0.016 µg/mL
MIC (Escherichia coli [12]): 0.06 µg/mL (≈ 0.176 µM)
MIC (Pseudomonas aeruginosa [13]): 8 µg/mL (≈ 23.5 µM)
MIC (Haemophilus influenzae): < 0.016 µg/mL
Structure (SMILES): Cc1c(N2CCC(C)CC2)ccc2c(=O)c(C(=O)O)cn(C3CC3)c12
